Results as given in ChEMBL document CHEMBL4431314, “Computer-aided drug design guided by hydrogen/deuterium exchange mass spectrometry: A powerful combination for the development of potent and selective inhibitors of Group VIA calcium-independent phospholipase A2” (Bioorg Med Chem, 2016).

How the values were obtained:
[1] = biological target: T1, 85/88 kDa calcium-independent phospholipase A2 (Homo sapiens) (UniProt O60733); assay: Inhibition of N-terminal 6xHis-tag human group VIA calcium-independent PLA2 expressed in fall armyworm sf9 cells at 0.091 mol fraction using PAPC/arachidonyl-1-14C PAPC as substrate by mixed micelle modified Dole assay
T1 sequence (whole entry): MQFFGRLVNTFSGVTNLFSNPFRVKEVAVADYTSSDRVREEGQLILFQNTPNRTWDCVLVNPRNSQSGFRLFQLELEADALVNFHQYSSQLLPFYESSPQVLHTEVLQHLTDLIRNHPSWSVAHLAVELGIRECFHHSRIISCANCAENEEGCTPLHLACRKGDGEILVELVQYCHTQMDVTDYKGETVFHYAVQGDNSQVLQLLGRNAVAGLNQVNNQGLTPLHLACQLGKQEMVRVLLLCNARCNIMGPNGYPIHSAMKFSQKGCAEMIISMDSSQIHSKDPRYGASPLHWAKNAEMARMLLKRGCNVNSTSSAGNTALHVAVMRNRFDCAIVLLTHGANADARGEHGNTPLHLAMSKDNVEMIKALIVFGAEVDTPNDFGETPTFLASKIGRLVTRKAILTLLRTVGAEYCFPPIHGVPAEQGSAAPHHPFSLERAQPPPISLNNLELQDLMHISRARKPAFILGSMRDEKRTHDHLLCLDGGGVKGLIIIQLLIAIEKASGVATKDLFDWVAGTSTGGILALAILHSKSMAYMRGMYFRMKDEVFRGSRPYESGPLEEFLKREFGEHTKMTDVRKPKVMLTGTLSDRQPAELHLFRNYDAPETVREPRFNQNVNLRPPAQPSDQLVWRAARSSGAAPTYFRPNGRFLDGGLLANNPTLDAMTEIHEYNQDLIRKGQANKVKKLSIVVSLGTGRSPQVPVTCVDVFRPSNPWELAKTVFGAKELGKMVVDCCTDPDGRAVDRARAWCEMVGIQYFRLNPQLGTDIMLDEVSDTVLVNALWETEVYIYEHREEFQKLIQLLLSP

[2] = species on record: Homo sapiens; assay: Inhibition of His-tagged human group V human secretory PLA2 expressed in Escherichia coli BL21 cells at 0.091 mol fraction using PAPC/arachidonyl-1-14C PAPC as substrate by mixed micelle modified Dole assay
[3] = biological target: T2, Cytosolic phospholipase A2 (Homo sapiens) (UniProt P47712); assay: Inhibition of C-terminal 6xHis-tagged human group IVA cytosolic PLA2 expressed in fall armyworm sf9 cells at 0.091 mol fraction using PAPC/arachidonyl-1-14C PAPC as substrate by mixed micelle modified Dole assay
T2 sequence (whole entry): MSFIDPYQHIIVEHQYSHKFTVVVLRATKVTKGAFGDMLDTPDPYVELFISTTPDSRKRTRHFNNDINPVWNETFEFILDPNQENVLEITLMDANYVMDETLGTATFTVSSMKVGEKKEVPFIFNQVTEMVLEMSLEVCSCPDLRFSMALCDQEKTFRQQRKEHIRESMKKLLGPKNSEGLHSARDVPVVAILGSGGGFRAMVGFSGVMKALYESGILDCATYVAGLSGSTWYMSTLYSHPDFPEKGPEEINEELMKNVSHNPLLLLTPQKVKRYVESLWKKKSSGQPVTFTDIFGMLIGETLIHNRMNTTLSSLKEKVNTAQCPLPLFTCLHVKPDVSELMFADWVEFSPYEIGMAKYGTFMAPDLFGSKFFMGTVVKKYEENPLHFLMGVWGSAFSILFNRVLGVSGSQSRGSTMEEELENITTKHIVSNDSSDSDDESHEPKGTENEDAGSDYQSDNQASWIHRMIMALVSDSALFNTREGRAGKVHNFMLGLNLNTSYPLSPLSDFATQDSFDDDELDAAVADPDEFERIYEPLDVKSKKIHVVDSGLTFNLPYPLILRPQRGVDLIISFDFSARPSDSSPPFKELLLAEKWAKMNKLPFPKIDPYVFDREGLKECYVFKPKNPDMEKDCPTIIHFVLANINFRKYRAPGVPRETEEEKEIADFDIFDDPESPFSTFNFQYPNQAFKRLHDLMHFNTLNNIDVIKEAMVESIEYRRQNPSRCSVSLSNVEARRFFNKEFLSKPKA

[4] = biological target: T1, 85/88 kDa calcium-independent phospholipase A2 (Homo sapiens); assay: Inhibition of N-terminal 6xHis-tag human group VIA calcium-independent PLA2 expressed in fall armyworm sf9 cells using PAPC/arachidonyl-1-14C PAPC as substrate by mixed micelle modified Dole assay
[5] = biological target: T2, Cytosolic phospholipase A2 (Homo sapiens); assay: Inhibition of C-terminal 6xHis-tagged human group IVA cytosolic PLA2 expressed in fall armyworm sf9 cells using PAPC/arachidonyl-1-14C PAPC as substrate by mixed micelle modified Dole assay
[6] = biological target: T1, 85/88 kDa calcium-independent phospholipase A2 (Homo sapiens); assay: Competitive-reversible inhibition of N-terminal 6xHis-tag human group VIA calcium-independent PLA2 expressed in fall armyworm sf9 cells using PAPC/arachidonyl-1-14C PAPC as substrate by mixed micelle modified Dole assay
[7] = biological target: T1, 85/88 kDa calcium-independent phospholipase A2 (Homo sapiens); assay: Binding affinity to Group VIA calcium-independent PLA2 (unknown origin) (770 to 778 residues) assessed as change in average deuteration level preincubated for 30 mins followed by D2O addition measured after 10 to 10000 secs by DXMS analysis
[8] = biological target: T1, 85/88 kDa calcium-independent phospholipase A2 (Homo sapiens); assay: Binding affinity to Group VIA calcium-independent PLA2 (unknown origin) (542 to 562 residues) assessed as change in average deuteration level preincubated for 30 mins followed by D2O addition measured after 10 to 10000 secs by DXMS analysis
[9] = biological target: T1, 85/88 kDa calcium-independent phospholipase A2 (Homo sapiens); assay: Binding affinity to Group VIA calcium-independent PLA2 (unknown origin) (514 to 524 residues) assessed as change in average deuteration level preincubated for 30 mins followed by D2O addition measured after 10 to 10000 secs by DXMS analysis
[10] = biological target: T1, 85/88 kDa calcium-independent phospholipase A2 (Homo sapiens); assay: Binding affinity to Group VIA calcium-independent PLA2 (unknown origin) (718 to 730 residues) assessed as change in average deuteration level preincubated for 30 mins followed by D2O addition measured after 10 to 10000 secs by DXMS analysis
[11] = biological target: T1, 85/88 kDa calcium-independent phospholipase A2 (Homo sapiens); assay: Binding affinity to Group VIA calcium-independent PLA2 (unknown origin) (630 to 655 residues) assessed as change in average deuteration level preincubated for 30 mins followed by D2O addition measured after 10 to 10000 secs by DXMS analysis
[12] = biological target: T1, 85/88 kDa calcium-independent phospholipase A2 (Homo sapiens); assay: Binding affinity to Group VIA calcium-independent PLA2 (unknown origin) (656 to 664 residues) assessed as change in average deuteration level preincubated for 30 mins followed by D2O addition measured after 10 to 10000 secs by DXMS analysis
[13] = biological target: T1, 85/88 kDa calcium-independent phospholipase A2 (Homo sapiens); assay: Binding affinity to Group VIA calcium-independent PLA2 (unknown origin) (481 to 493 residues) assessed as change in average deuteration level preincubated for 30 mins followed by D2O addition measured after 10 to 10000 secs by DXMS analysis

inhibition [1] | pXI50 [1] | inhibition [3] | XI50 (mole fraction) [4] | SMILES | inhibition [2] | further results
99% | 3.3 | 77% | 0.00052 | CCCCCCSCC(=O)C(F)(F)F | 33% | –
39% | – | 60% | – | O=C(c1ccc(C2CCCCC2)s1)C(F)(F)F | 66% | –
43% | – | 58% | – | CCCCCCOCC(O)C(F)(F)F (stereo not given) | 35% | –
24% | – | 5% | – | CCCCCCCCS(=O)(=O)CC(O)C(F)(F)F (stereo not given) | 23% | –
99% | 2.3 | 91% | 0.0049 | O=C(CSc1c(Cl)cccc1Cl)C(F)(F)F | 43% | –
95% | 2.1 | 61% | 0.009 | Cc1ccc(SCC(=O)C(F)(F)F)cc1 | 18% | –
98% | 3.2 | 98% | 0.0007 | CCCCCCCCCCCSCC(=O)C(F)(F)F | 73% | XI50 (mole fraction) [5]: 0.014
52% | – | 26% | – | O=C(CSc1ccc([N+](=O)[O-])cc1)C(F)(F)F | 17% | –

More lines, now with the values behind:

SMILES | inhibition [1] | pXI50 [1] | inhibition [3] | XI50 (mole fraction) [4] | inhibition [2] | further results
CCCCCCCCCCCCSCC(=O)C(F)(F)F | 97% | 2.4 | 83% | 0.0043 | 87% | –
CCCCCCCCS(=O)(=O)CC(O)(O)C(F)(F)F | 82% | – | 19% | – | 18% | –
CCCCCCS(=O)(=O)CC(O)(O)C(F)(F)F | 71% | – | 14% | – | 0% | –
O=C(CSc1ccc(Br)cc1)C(F)(F)F | 97% | 2.2 | 82% | 0.0071 | 35% | –
O=C(C[Se]c1ccccc1)C(F)(F)F | 46% | – | 18% | – | 44% | –
O=C(CSc1ccc(F)cc1)C(F)(F)F | 46% | – | 24% | – | 14% | –
CCCCSCC(=O)C(F)(F)F | 91% | 1.2 | 46% | 0.07 | 14% | –
CCCCCCS(=O)(=O)CC(O)C(F)(F)F (stereo not given) | 15% | – | 5% | – | 16% | –
O=C(CSc1ccc(Cl)cc1)C(F)(F)F | 95% | 2 | 82% | 0.011 | 23% | –
O=C(CSc1ccccc1)C(F)(F)F | 89% | – | 75% | – | 27% | –
CCCCCCCCCCCCS(=O)(=O)CC(O)C(F)(F)F (stereo not given) | 32% | – | 2% | – | 80% | –
CCCCCCCCCCSCC(=O)C(F)(F)F | 99% | 3.4 | 100% | 0.00041 | 78% | XI50 (mole fraction) [5]: 0.008
CCCCCCCCCCCCS(=O)(=O)CC(O)(O)C(F)(F)F | 52% | – | 34% | – | 44% | –
O=C(CSc1cccc(Cl)c1)C(F)(F)F | 98% | 2 | 91% | 0.011 | 46% | –
O=C(CSCCc1ccccc1)C(F)(F)F | 100% | 3.2 | 92% | 0.00059 | 61% | –
COc1ccc(SCC(=O)C(F)(F)F)cc1 | 93% | 2 | 70% | 0.011 | 16% | –
CCCCCCOCC(=O)C(F)(F)F | 99% | 2.2 | 76% | 0.006 | 35% | –
CCCCCCCCSCC(=O)C(F)(F)F | 99% | 3.7 | 82% | – | 68% | XI50 (mole fraction) [6]: 0.0002; Activity [7]: 20%; Activity [8]: 18%; Activity [9]: 13%; Activity [10]: 13%; Activity [11]: 12%; Activity [12]: 12%; Activity [13]: 16%
